Laboratory results taken from ChEMBL document CHEMBL1133339, “Leukotriene B4 photoaffinity probes: design, synthesis and evaluation of new arylazide-1,3-disubstituted cyclohexanes” (Bioorg Med Chem Lett, 2000).

target: Leukotriene B4 receptor 1 (Homo sapiens, UniProt Q15722); assay: Compound was tested for inhibition against binding of radioligand [3H]LTB4 to Leukotriene B4 receptor in human neutrophil membranes; assay type: cell membranes
Sequence (Q15722 whole entry): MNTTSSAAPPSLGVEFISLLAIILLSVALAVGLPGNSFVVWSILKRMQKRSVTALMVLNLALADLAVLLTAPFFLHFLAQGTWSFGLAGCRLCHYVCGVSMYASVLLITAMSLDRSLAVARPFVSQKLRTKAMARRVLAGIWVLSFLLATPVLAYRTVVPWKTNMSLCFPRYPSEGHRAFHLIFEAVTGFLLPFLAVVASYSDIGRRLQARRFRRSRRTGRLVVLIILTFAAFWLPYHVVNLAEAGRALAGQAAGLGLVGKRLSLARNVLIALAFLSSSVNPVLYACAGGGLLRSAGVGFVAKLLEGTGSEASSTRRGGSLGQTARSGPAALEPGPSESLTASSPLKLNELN

Question: Which IC50 does the source give for `CN(C)C(=O)CC1(O)CCCC(/C=C/C(O)CCCCc2ccc(N=[N+]=[N-])c(I)c2)C1` (stereo in doubt) here?
Answer: 6000 nM

Question: How did the IC50 turn out when `CN(C)C(=O)CC1(O)CCCC(/C=C/C(O)CCCCc2ccc(N=[N+]=[N-])c(I)c2)C1` (stereo in doubt; 6b) was run?
Answer: > 10000 nM

Question: How did the IC50 turn out when `CN(C)C(=O)CC1(O)CCCC(/C=C/C(O)CCCCc2ccc(N=[N+]=[N-])cc2)C1` (stereo in doubt) was run?
Answer: 700 nM

Question: Which IC50 does the source give for `CN(C)C(=O)CC1(O)CCCC(/C=C/C(O)CCCCc2ccc(N=[N+]=[N-])cc2)C1` (stereo in doubt; 4b) here?
Answer: 2000 nM

Question: For `CN(C)C(=O)CC1(O)CCCC(/C=C/C(O)CCCCc2ccccc2)C1` (stereo not drawn), which IC50 is on record?
Answer: 40 nM

Question: `[N-]=[N+]=Nc1ccc(CCCCC(O)/C=C/C2CCCC(O)(CC(=O)O)C2)cc1I` (stereo not drawn) was tested. Which IC50 did it give?
Answer: > 10000 nM

Question: With `[N-]=[N+]=Nc1ccc(CCCCC(O)/C=C/C2CCCC(O)(CC(=O)O)C2)cc1` (stereo not drawn) as the compound, how does the IC50 read?
Answer: 2000 nM

Question: How did the IC50 turn out when `O=C(O)CC1(O)CCCC(/C=C/C(O)CCCCc2ccccc2)C1` (stereo not drawn) was run?
Answer: 300 nM
